Target: LeuS (Escherichia coli, UniProt P07813)
Assay: HAMA hydroxamate LC-MS/MS competition assay
Assay type: biochemical
Details: amino acid mixture

CC(C)C[C@H](N)C(=O)O [L-Leu]
HAMA hydroxamate LC-MS/MS competition assay: all three specificities were correctly identified and almost no side-activities detected

From paper PMC6988596 (Chemical Science, 2019)
